Laboratory results from ChEMBL document CHEMBL5131560, “Discovery of Heteroaryl Urea Isosteres for Formyl Peptide Receptor 2 Agonists” (ACS Med Chem Lett, 2022).

Assays:
[1] = target: T1, N-formyl peptide receptor 2 (Homo sapiens, UniProt P25090); experiment: Agonist activity at human FPR2 overexpressing CHO cells assessed as reduction in intracellular cAMP level incubated for 30 mins by HTRF assay; assay type: functional, cell-based
T1 sequence (P25090 whole entry): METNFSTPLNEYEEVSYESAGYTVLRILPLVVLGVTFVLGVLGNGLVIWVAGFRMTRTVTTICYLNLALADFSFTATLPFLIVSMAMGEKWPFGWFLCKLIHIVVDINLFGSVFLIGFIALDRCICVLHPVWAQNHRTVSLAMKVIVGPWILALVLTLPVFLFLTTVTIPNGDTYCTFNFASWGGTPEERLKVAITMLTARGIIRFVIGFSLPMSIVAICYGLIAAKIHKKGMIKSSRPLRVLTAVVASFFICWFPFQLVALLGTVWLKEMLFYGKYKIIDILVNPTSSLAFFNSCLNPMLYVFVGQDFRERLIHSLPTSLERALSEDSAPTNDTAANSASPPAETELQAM

[2] = Protein binding in human assessed as free fraction; assay type: ADME
[3] = Permeability of the compound at pH 5.5 by PAMPA assay; assay type: ADME; conditions: read-out: permeability
[4] = AUC (0 to infinity) in C57BL6 mouse at 3 mg/kg, po and measured upto 24 hrs by LC-MS/MS analysis; assay type: ADME, organism-based; design: dose 3 mg/kg, time < 24 hrs, route po; conditions: in vivo
Peritoneal macrophage = experiment: Induction of phagocytosis in mouse peritoneal macrophages assessed as increase in FITC signal preincubated with compound for 15 mins followed by zymosan addition and measured after 1 hr by Trypan Blue based FITC analysis

Row | Compound | EC50 [1] [nM] | also measured
1 | COc1cc(F)c([C@@H]2CNC(=O)[C@H]2Nc2cc(-c3ccc(Cl)cc3)no2)c(F)c1 | 2200 | –
2 | COc1cc(F)c([C@@H]2CNC(=O)[C@H]2c2nc3ccccc3[nH]2)c(F)c1 | 680 | –
3 | COc1cc(F)c([C@@H]2CNC(=O)[C@H]2Nc2nnc(-c3ccc(Cl)cc3F)o2)c(F)c1 | 840 | –
4 | COc1cc(F)c([C@@H]2CNC(=O)[C@H]2Nc2noc(-c3ccc(Cl)cc3)n2)c(F)c1 | 2500 | –
5 | COc1cc(F)c([C@@H]2CNC(=O)[C@H]2Nc2cc(-c3ccc(Cl)cc3)[nH]n2)c(F)c1 | > 10000 | –
6 | COc1cc(F)c([C@@H]2CNC(=O)[C@H]2Nc2nnc(-c3ccccc3Cl)o2)c(F)c1 | > 10000 | –
7 | COc1ccc([C@@H]2CNC(=O)[C@H]2Nc2nnc(-c3ccc(Cl)cc3)o2)cc1 | 160 | –
8 | COc1cc(F)c([C@@H]2CNC(=O)[C@H]2Nc2nnc(-c3ccc(Cl)cc3)o2)c(F)c1 | 32 | fraction unbound [2]: 0.015; Papp [3]: 97 ×10⁻⁶ cm/s; AUC(0-inf) [4]: 8.4 µM·h
9 | COc1cc(F)c([C@@H]2CNC(=O)[C@H]2NC(=O)Nc2ccccc2)c(F)c1 [BMS-986235] | – | EC50 (Peritoneal macrophage): < 1 nM; fraction unbound [2]: 0.127; Papp [3]: 44 ×10⁻⁶ cm/s; AUC(0-inf) [4]: 5.6 µM·h
10 | COc1ccc([C@@H]2CNC(=O)[C@H]2Nc2nnc(-c3ccc(Cl)cc3)o2)c(F)c1 | 40 | –
11 | COc1cc(F)c([C@@H]2CNC(=O)[C@H]2Nc2nnc(-c3ccccc3)o2)c(F)c1 | 250 | –
12 | COc1cc(F)c([C@@H]2CNC(=O)[C@H]2c2nc3c(Cl)cccc3[nH]2)c(F)c1 | > 10000 | –
13 | COc1cc(F)c([C@@H]2CNC(=O)[C@H]2c2nc3nc(Cl)ccc3[nH]2)c(F)c1 | 2300 | –
14 | COc1cc(F)c([C@@H]2CNC(=O)[C@H]2Nc2cc(-c3ccc(Cl)cc3)on2)c(F)c1 | – | fraction unbound [2]: 0.005; Papp [3]: 110 ×10⁻⁶ cm/s; AUC(0-inf) [4]: 15 µM·h
15 | COc1cc(F)c([C@@H]2CNC(=O)[C@H]2c2nc3cc(Cl)cnc3[nH]2)c(F)c1 | 40 | –
16 | COc1cc(F)c([C@@H]2CNC(=O)[C@H]2Nc2nc3ccccc3[nH]2)c(F)c1 | 1300 | –
17 | COc1cc(F)c([C@@H]2CNC(=O)[C@H]2Nc2nnc(-c3ccc(OC(F)(F)F)cc3)o2)c(F)c1 | 53 | –
18 | COc1ccc(-c2nnc(N[C@@H]3C(=O)NC[C@H]3c3c(F)cc(OC)cc3F)o2)cc1 | 3700 | –
19 | COc1cc(F)c([C@@H]2CNC(=O)[C@H]2c2nc3cc(Cl)ccc3[nH]2)c(F)c1 | 110 | –
20 | COc1cc(F)c([C@@H]2CNC(=O)[C@H]2c2nc3cc(OC)ccc3[nH]2)c(F)c1 | > 5000 | –
21 | COc1cc(F)c([C@@H]2CNC(=O)[C@H]2Nc2nnc(-c3cccc(Cl)c3)o2)c(F)c1 | > 10000 | –
22 | COc1cc(F)c([C@@H]2CNC(=O)[C@H]2Nc2cc(-c3ccc(Cl)cc3)n(C)n2)c(F)c1 | > 10000 | –
23 | COc1cc(F)c([C@@H]2CNC(=O)[C@H]2Nc2nc(-c3ccc(Cl)cc3)no2)c(F)c1 | 3500 | –
24 | COc1cc(F)c([C@@H]2CNC(=O)[C@H]2Nc2nnc(-c3ccc(Cl)cc3)s2)c(F)c1 | 37 | –
25 | COc1cc(F)c([C@@H]2CNC(=O)[C@H]2Nc2ncc(-c3ccc(Cl)cc3)o2)c(F)c1 | 250 | –
